What was measured:
Assay in all cases: Test C pre-/postemergence herbicide test
[1] = tested on: lambsquarters; type: in vivo, Chenopodium album
Procedure, shortened: (§1)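 Greenhouse-grown plants were evaluated visually 12 to 14 days after treatment, with 100 meaning complete control and 0 no effect. Application was preemergence, or postemergence at 2 to 18 cm.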

[2] = tested on: large crabgrass; type: in vivo, Digitaria sanguinalis
Procedure, shortened: as §1

[3] = tested on: common ragweed; type: in vivo, Ambrosia elatior; design: key to Plant response rating, Ragweed: 0 = no effect, 100 = complete control
Procedure, shortened: as §1

[4] = tested on: pigweed; type: in vivo, Amaranthus retroflexus
Procedure, shortened: as §1

[5] = tested on: common (oilseed) sunflower; type: in vivo, Helianthus annuus; conditions: preemergence; for Plant response rating (0 = no effect, 100 = complete control), Sunflower: 125 g ai/ha
Procedure, shortened: as §1

[6] = 62 g ai/ha, preemergence, scale 0 to 100
[7] = 125 g ai/ha, scale 0 (no effect) to 100 (complete control), visual, 12 to 14 days, preemergence
[8] = 250 g ai/ha, scale 0-100, preemergence
[9] = 500 g ai/ha, scale 0 to 100 (0 no effect, 100 complete control), visual, 12 to 14 days, preemergence
[10] = Postemergence, 500 g ai/ha, scale 0 to 100
[11] = Postemergence, 250 g ai/ha, scale 0 to 100, 0 no effect, 100 complete control
[12] = postemergence, 125 g ai/ha, scale 0 to 100
[13] = postemergence, 62 g ai/ha, scale 0 to 100
[14] = 500 g ai/ha, scale 0 to 100 (0 no effect, 100 complete control), visual, 12 to 14 days

C=CCNC(=O)c1cccc(NC(=O)c2cc(C(C)(C)C)nn2C)n1 [Compound 318]
95: Plant response rating, Lambsquarters [1, 7] | Plant response rating, Pigweed [4, 7]
50: Plant response rating, Crabgrass, Large [2, 7] | Crabgrass, Large plant response rating [2, 10]
60: Plant response rating, Lambsquarters [1, 13] | Plant response rating, Crabgrass, Large [2, 8]
70: Plant response rating, Lambsquarters [1, 12] | Plant response rating, Ragweed [3, 8] | Plant response rating, Ragweed [3, 9]
100: Plant response rating, Lambsquarters [1, 8] | Plant response rating, Lambsquarters [1, 9] | Lambsquarters plant response rating [1, 10] | Plant response rating, Lambsquarters [1, 11] | Plant response rating, Crabgrass, Large [2, 9] | Plant response rating, Pigweed [4, 8] | Plant response rating, Pigweed [4, 9] | Pigweed plant response rating [4, 10] | Plant response rating, Pigweed [4, 11] | Plant response rating, Pigweed [4, 12] | Plant response rating, Pigweed [4, 13]
30: Plant response rating, Crabgrass, Large [2, 11]
80: Plant response rating, Lambsquarters [1, 6] | Plant response rating, Pigweed [4, 6]
0: Plant response rating, Crabgrass, Large [2, 12] | Plant response rating, Crabgrass, Large [2, 13] | Plant response rating, Ragweed [3, 6] | Ragweed plant response rating [3, 10] | Plant response rating, Ragweed [3, 11] | Plant response rating, Ragweed [3, 12] | Plant response rating, Ragweed [3, 13] | Plant response rating, Sunflower ([5]; 62 g ai/ha, scale 0 to 100) | Plant response rating, Sunflower ([5]; 250 g ai/ha, scale 0-100) | Plant response rating, Sunflower [5, 14]

Cc1nn(C(C)(C)C)nc1C(=O)Nc1cccc(C(=S)N(C)C)c1 [Compound 419]
100: Plant response rating, Lambsquarters [1, 8] | Plant response rating, Lambsquarters [1, 9] | Plant response rating, Crabgrass, Large [2, 6] | Plant response rating (0 = no effect, 100 = complete control), Crabgrass, Large ([2]; 125 g ai/ha, preemergence) | Plant response rating, Crabgrass, Large [2, 8] | Plant response rating, Crabgrass, Large [2, 9] | Plant response rating, Ragweed [3, 9] | Plant response rating, Pigweed [4, 6] | Plant response rating (0 = no effect, 100 = complete control), Pigweed ([4]; 125 g ai/ha, preemergence) | Plant response rating, Pigweed [4, 9]
15: Plant response rating (0 = no effect, 100 = complete control), Ragweed ([3]; 125 g ai/ha, preemergence)
0: Plant response rating, Sunflower ([5]; 62 g ai/ha, scale 0 to 100) | Plant response rating (0 = no effect, 100 = complete control), Sunflower [5]
95: Plant response rating, Lambsquarters [1, 6] | Plant response rating (0 = no effect, 100 = complete control), Lambsquarters ([1]; 125 g ai/ha, preemergence) | Plant response rating, Sunflower [5, 14]
10: Plant response rating, Ragweed [3, 6]

CCNC(=S)c1cccc(NC(=O)c2nn(C(C)(C)C)nc2C)c1 [Compound 420]
100: Plant response rating (0 = no effect, 100 = complete control), Lambsquarters ([1]; 125 g ai/ha, preemergence) | Plant response rating, Lambsquarters [1, 8] | Plant response rating, Lambsquarters [1, 9] | Plant response rating, Crabgrass, Large [2, 6] | Plant response rating (0 = no effect, 100 = complete control), Crabgrass, Large ([2]; 125 g ai/ha, preemergence) | Plant response rating, Crabgrass, Large [2, 8] | Plant response rating, Crabgrass, Large [2, 9] | Plant response rating, Pigweed [4, 6] | Plant response rating (0 = no effect, 100 = complete control), Pigweed ([4]; 125 g ai/ha, preemergence) | Plant response rating, Pigweed [4, 9]
95: Plant response rating, Lambsquarters [1, 6]
0: Plant response rating, Ragweed [3, 6] | Plant response rating, Sunflower ([5]; 62 g ai/ha, scale 0 to 100) | Plant response rating (0 = no effect, 100 = complete control), Sunflower [5]
65: Plant response rating, Sunflower [5, 14]
55: Plant response rating (0 = no effect, 100 = complete control), Ragweed ([3]; 125 g ai/ha, preemergence)
85: Plant response rating, Ragweed [3, 9]

Source: US20060069132A1, “Azolecarboxamide herbicides” (priority 2004, published 2006)
